Experimental data published in PMC1090567, “S-Nitrosothiols modulate G protein-coupled receptor signaling in a reversible and highly receptor-specific manner” (BMC Cell Biology, 2005).

Target: T1, Adenosine A1 (Rattus norvegicus, UniProt P25099)
T1 construct: gene Adora1; native receptor in rat forebrain P2 membranes
T1 sequence (P25099 1-326): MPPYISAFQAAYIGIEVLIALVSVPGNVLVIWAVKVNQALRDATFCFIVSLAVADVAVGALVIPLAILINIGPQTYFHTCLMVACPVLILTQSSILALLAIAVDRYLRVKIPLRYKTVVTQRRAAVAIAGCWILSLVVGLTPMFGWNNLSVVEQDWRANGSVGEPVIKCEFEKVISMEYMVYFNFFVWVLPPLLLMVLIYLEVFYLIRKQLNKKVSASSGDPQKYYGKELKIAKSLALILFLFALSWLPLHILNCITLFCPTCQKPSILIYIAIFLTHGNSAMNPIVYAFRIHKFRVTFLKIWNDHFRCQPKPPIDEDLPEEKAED
Assay: […]GTPγS binding, rat forebrain membranes
Assay type: biochemical
Conditions: agonist; control without GSNO; 10 μM GDP, pH 7.4, 25 °C

SMILES: Nc1nc(Cl)nc2c1ncn2[C@@H]1O[C@H](CO)[C@@H](O)[C@H]1O [2-chloroadenosine]
- Control / log(EC50): -6.90 ± 0.04
